# Test results as given in publication PMC8769378, “Underlining the Importance of Peripheral Protic Functional Groups to Enhance the Proton Exchange of Gd-Based MRI Contrast Agents” (Inorganic Chemistry, 2021).
# Marks after values point to notes of the source that are not given here.
# Tests used:
# Assay type in all cases: physicochemical
# [1] = Stability and protonation constants of Zn^II complexes by pH potentiometry
# Text: (§1) The metal complexes of biomedical interest must show a high in vivo stability, which includes high thermodynamic stability and kinetic inertness to allow targeting applications and to avoid possible toxic effects derived by metal ion and ligand release via transmetalation or transchelation reactions.[2],[3],[13] The protonation constants of L2 as well as the stability and the protonation constants of GdL2 and those of the most important endogenous divalent metal complexes (Ca^II-, Zn^II-, and Cu^II) were determined by pH potentiometry (Table 1 and Table S1). In the case of GdL1, we were interested in determining the dissociation constant of the hydroxyl group that was measured also by pH potentiometry (Table 1). Experimental details and the definitions and equations used for the evaluation of the equilibrium and kinetic data are summarized in the SI.
# The stability and protonation constants of Ca^2+, Zn^2+, and Cu^2+ complexes formed with the L1 ligand were determined by pH potentiometric titration. The metal-to-ligand concentration ratio was 1:1 (the concentration of the ligand was generally 0.002 M). The protonation constants of the GdL1 and GdL2 complexes were determined using pH potentiometry by titrating the preprepared complexes from pH = 3.0 to pH = 12 for GdL2 and from pH = 4.0 to pH = 12 for GdL1 with 0.2 M NaOH. The stability constants of GdL2 were determined by the “out-of-cell” technique because of the slow formation reaction. The pH range of the complexation equilibria and the time needed to reach the equilibria were determined by relaxometry for the formation of GdL2. […] For the calculation of the stability constants of GdL2, besides the protonation constants of ligands, the stability constants of the diprotonated *Gd(H2L2) out-of-cage complexes (considered as intermediates) were also used as fixed values, which were calculated from the pH potentiometric titration curve of the Gd^3+–L2 system obtained in the pH range 1.7–4.0.
# For the pH measurements and titrations, the Metrohm 888 Titrando titration workstation Metrohm-6.0234.110 combined electrode was used. […] For the calculation of [H^+] from the measured pH values, the method proposed by Irving et al. was used as follows.[34] […] The differences (A) between the measured (pHread) and calculated (−log[H^+]) pH values were used to obtain the equilibrium H^+ concentration from the pH values measured in the titration experiments (A = 0.024). […]
# The stability and protonation constants of CaII-, ZnII-, CuII- and GdIII-complexes of L2, expressed by Eqs. (S2) and (S3), were determined by pH-potentiometry and spectrophotometry at 25 °C in 0.15 M […]
# where i=0, 1, 2, 3. […] The stability constant of GdL2 was calculated from the equilibrium data obtained by the “out-of-cell” technique due to the slow complexation reaction. […]
# [2] = Stability and protonation constants of Ca^II complexes by pH potentiometry
# Text: as §1, with “Experimental details and the definitions and equations used for the evaluation of the equilibrium and kinetic data are summarized in the SI.” left out
# The stability and protonation constants of Ca^2+, Zn^2+, and Cu^2+ complexes formed with the […] ligand were determined by pH potentiometric titration. […] The protonation constants of the GdL1 and GdL2 complexes were determined using pH potentiometry by titrating the preprepared complexes from pH = 3.0 to pH = 12 for GdL2 and from pH = 4.0 to pH = 12 for GdL1 with 0.2 M NaOH. The stability constants of GdL2 were determined by the “out-of-cell” technique because of the slow formation reaction. The pH range of the complexation equilibria and the time needed to reach the equilibria were determined by relaxometry for the formation of GdL2. […]
# [3] = Protonation constants of the ligands by pH potentiometry; conditions: I = 0.15 M NaCl, 298 K
# Text: as §1
# The chemicals used for the experiments were of the highest analytical grade. The concentrations of the CaCl2, ZnCl2, CuCl2, and GdCl3 solutions were determined by complexometric titration with standardized Na2H2EDTA and xylenol orange (ZnCl2, and GdCl3), murexid (CuCl2), and Patton and Reeder (CaCl2) as indicators. The concentration of the H3L1 and H4L2 was determined by pH potentiometric titration in the presence and absence of a large (40-fold) excess of CaCl2. The pH potentiometric titrations were performed with standardized 0.2 M NaOH.
# For the pH measurements and titrations, the Metrohm 888 Titrando titration workstation Metrohm-6.0234.110 combined electrode was used. Equilibrium measurements were carried out at a constant ionic strength (0.15 M NaCl) in 6 mL samples at 25 °C. The solutions were stirred, and N2 was bubbled through them. The titrations were made in the pH range 1.7–12.0. KH-phthalate (pH = 4.005) and borax (pH = 9.177) buffers were used to calibrate the pH meter. For the calculation of [H^+] from the measured pH values, the method proposed by Irving et al. was used as follows.[34] A 0.01 M HCl solution was titrated with standardized NaOH solution at 0.15 M NaCl ionic strength. The differences (A) between the measured (pHread) and calculated (−log[H^+]) pH values were used to obtain the equilibrium H^+ concentration from the pH values measured in the titration experiments (A = 0.024). For the equilibrium calculations, the stoichiometric water ionic product (pKw) was also needed to calculate [OH^–] values under basic conditions. The VNaOH–pHread data pairs of the HCl–NaOH titration obtained in the pH range 10.5–12.0 were used to calculate the pKw value (pKw = 13.79).
# [4] = Conditional stability constant pGd; conditions: pGd = −log[Gd]free, [Gd^3+] = 1 μM, [L] = 10 μM, pH = 7.4; calculated from the constants
smiles,measurement,setting,value
"O=C(O)CN1CCN(CC(=O)O)CCN(C[C@@H](O)C(=O)O)CCN(CC(=O)O)CC1 [L2, (R)2,2′,2″-(10-(2-Carboxy-2-hydroxyethyl)-1,4,7,10-tetraazacyclododecane-1,4,7-triyl) Triacetic Acid]",ZnH2L (log K),"[1]; 0.15 M NaCl, 25 °C",3.32 (3)
same,ZnH3L (log K),"[1]; 0.15 M NaCl, 25 °C",2.29 (5)
same,"ZnHL (log K, protonation constant of the complex)","[1]; 0.15 M NaCl, 25 °C",3.86 (5)
same,"ZnL (log K, stability constant)","[1]; I = 0.15 M NaCl, 298 K",17.81 (6)
same,"CaHL (log K, protonation constant of the complex)","[2]; 0.15 M NaCl, 25 °C",5.20 (5)
same,"CaL (log K, stability constant)","[2]; I = 0.15 M NaCl, 298 K",11.63 (1)
same,log K5^H,[3]; first line headed log K5^H,2.47 (4)
same,log K1^H,[3]; ligand protonation constant,8.95 (3)
same,log K2^H,[3]; ligand protonation constant,8.95 (2)
same,log K3^H,[3]; ligand protonation constant,4.22 (3)
same,log K4^H,[3]; ligand protonation constant,3.74 (3)
same,log K5^H,[3]; second line headed log K5^H (sixth constant),1.75 (4)
same,pGd,[4],16.87 ^h
